Where “and” joins values, the source holds several entries; their conditions need not be identical. Equal values may be shown once. Toxic doses and inconclusive results are not listed.
Tested on: P388 leukemia ip, CD2F1 mice, survival T/C
Test: NCI In Vivo Anticancer Drug Screen. Data for tumor model P388 Leukemia (intraperitoneal) in CD2F1 (CDF1) mice
Settings: endpoint: median survival time, higher = longer survival
Outline: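 Mice carrying the transplanted tumor received test compound or vehicle. Survival was recorded in each group, and the value is the treated-group measurement divided by that of the vehicle-treated control group.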

[1] = dose: 50.0 mg/kg/injection, schedule: Q01DX005 (ip), vehicle: Klucel (hydroxypropylcellulose) (HPC)
[2] = dose: 100.0 mg/kg/injection, schedule: Q01DX005 (ip), vehicle: Klucel (hydroxypropylcellulose) (HPC)
[3] = dose: 50.0 mg/kg/injection, schedule: Q01DX009 (ip), vehicle: suspension in saline
[4] = dose: 100.0 mg/kg/injection, schedule: Q01DX009 (ip), vehicle: suspension in saline
[5] = dose: 100.0 mg/kg/injection, schedule: Q04DX002 (ip), vehicle: saline with Tween-80
[6] = dose: 200.0 mg/kg/injection, schedule: Q04DX002 (ip), vehicle: saline with Tween-80
[7] = dose: 400.0 mg/kg/injection, schedule: Q04DX002 (ip), vehicle: saline with Tween-80
[8] = dose: 50.0 mg/kg/injection, schedule: Q01DX009 (ip), vehicle: saline with Tween-80
[9] = dose: 100.0 mg/kg/injection, schedule: Q01DX009 (ip), vehicle: saline with Tween-80
[10] = dose: 50.0 mg/kg/injection, schedule: Q01DX009 (ip), vehicle: other
[11] = dose: 100.0 mg/kg/injection, schedule: Q01DX009 (ip), vehicle: other
[12] = dose: 200.0 mg/kg/injection, schedule: Q01DX009 (ip), vehicle: other

`N=C(N)c1ccc(N=Nc2c(O)ccc3cc4c(N=Nc5ccc(C(=N)N)cc5)c(O)ccc4cc23)cc1` was tested, and the T/C [1] was 110 % of control, the T/C [2] was 111 % of control and the T/C (dose: 200.0 mg/kg/injection, schedule: Q01DX005 (ip), vehicle: Klucel (hydroxypropylcellulose) (HPC)) was 110 % of control.
In the case of `Cc1cc(N2C(=O)CCSC2=S)c([N+](=O)[O-])cc1C`, the T/C [3] is reported as 98 % of control, the T/C [4] is reported as 91 % of control and the T/C (dose: 200.0 mg/kg/injection, schedule: Q01DX009 (ip), vehicle: suspension in saline) is reported as 94 % of control.
For `O=C1c2ccccc2C(=O)N1C[P+](c1ccccc1)(c1ccccc1)c1ccccc1`, the T/C (dose: 0.78 mg/kg/injection, schedule: Q01DX009 (ip), vehicle: water) was 102 % of control, the T/C (dose: 1.56 mg/kg/injection, schedule: Q01DX009 (ip), vehicle: water) was 106 % of control and the T/C (dose: 3.13 mg/kg/injection, schedule: Q01DX009 (ip), vehicle: water) was 106 % of control. For the same compound, the T/C (dose: 5.56 mg/kg/injection, schedule: Q01DX009 (ip), vehicle: water) was 123 % of control and the T/C (dose: 25.0 mg/kg/injection, schedule: Q01DX009 (ip), vehicle: water) was 98 % of control.
With `CNc1ccc(OC)cc1` the T/C (dose: 100.0 mg/kg/injection, schedule: Q04DX003 (ip), vehicle: other) was 100 % of control, the T/C (dose: 200.0 mg/kg/injection, schedule: Q04DX003 (ip), vehicle: other) was 90 % of control and the T/C (dose: 400.0 mg/kg/injection, schedule: Q04DX003 (ip), vehicle: other) was 109 % of control.
With `CCOC(=O)C(=CNc1cccc2cccnc12)C(=O)OCC` the T/C [5] was 97 % of control, the T/C [6] was 99 % of control and the T/C [7] was 99 % of control.
`CS(=O)(=O)OCCN(CCOS(C)(=O)=O)c1ccc(/C=N/Nc2ncnc3nc[nH]c23)cc1` was tested, and the T/C [8] was 172 % of control, the T/C (dose: 66.0 mg/kg/injection, schedule: Q04DX003 (ip), vehicle: saline with Tween-80) was 177 % of control and the T/C [9] was 181 % of control. For the same compound, the T/C (dose: 100.0 mg/kg/injection, schedule: Q04DX003 (ip), vehicle: saline with Tween-80) was 177 % of control and the T/C (dose: 150.0 mg/kg/injection, schedule: Q04DX003 (ip), vehicle: saline with Tween-80) was 195 % of control.
With `N#CC(NCC1(O)CCCCC1)C(O)c1ccccc1` (configuration not stated) the T/C (dose: 25.0 mg/kg/injection, schedule: Q01DX009 (ip), vehicle: suspension in saline) was 94 % of control, the T/C [3] was 108 % of control and the T/C [4] was 109 % of control.
`COc1cc2c(cc1OC)C(=O)c1ncccc1C2=O` was tested, and the T/C (dose: 12.5 mg/kg/injection, schedule: Q01DX009 (ip), vehicle: other) was 104 % of control, the T/C (dose: 25.0 mg/kg/injection, schedule: Q01DX009 (ip), vehicle: other) was 100 % of control and the T/C [10] was 99 % of control. The T/C [11] was 90 % of control and the T/C [12] was 89 % of control.
`CN(C=O)c1ccc(C(=O)NC(CCC(=O)O)C(=O)O)cc1` (configuration not stated) was tested, and the T/C (dose: 60.0 mg/kg/injection, schedule: Q01DX005 (ip), vehicle: Klucel (hydroxypropylcellulose) (HPC)) was 98 % of control, the T/C (dose: 120.0 mg/kg/injection, schedule: Q01DX005 (ip), vehicle: Klucel (hydroxypropylcellulose) (HPC)) was 98 % of control and the T/C (dose: 240.0 mg/kg/injection, schedule: Q01DX005 (ip), vehicle: Klucel (hydroxypropylcellulose) (HPC)) was 89 % of control.
In the case of `O=C(Nc1ccc(Cl)cc1)Nc1nnc2nc(C(C(=O)c3ccc(Cl)cc3Cl)c3nc4nnc(NC(=O)Nc5ccc(Cl)cc5)n4[nH]c3=O)c(=O)[nH]n12`, the T/C (dose: 60.0 mg/kg/injection, schedule: Q01DX005 (ip), vehicle: saline with Tween-80) is reported as 103 % of control, the T/C (dose: 120.0 mg/kg/injection, schedule: Q01DX005 (ip), vehicle: saline with Tween-80) is reported as 101 % of control and the T/C (dose: 240.0 mg/kg/injection, schedule: Q01DX005 (ip), vehicle: saline with Tween-80) is reported as 101 % of control.
For `COC1CCC(NS(=O)(=O)c2ccc(N)cc2)[N-]N1.[Ag+]` (configuration not stated), the T/C (dose: 12.5 mg/kg/injection, schedule: Q01DX009 (ip), vehicle: saline) was 93 % of control, the T/C (dose: 25.0 mg/kg/injection, schedule: Q01DX009 (ip), vehicle: saline) was 101 % of control and the T/C (dose: 50.0 mg/kg/injection, schedule: Q01DX009 (ip), vehicle: saline) was 98 % of control and 109 % of control.
`CC(C)c1[nH]c2ccccc2c1Cn1ccnc1` was tested, and the T/C [1] was 100 % of control and the T/C [2] was 114 % of control.
In the case of `Cl[Si]1(Cl)CCCC1`, the T/C [10] is reported as 99 % of control, the T/C [11] is reported as 100 % of control and the T/C [12] is reported as 99 % of control.
With `Cc1ccc(S(=O)(=O)N2CC3CC=C(Cc4ccnc5ccccc45)CC(C2)C3=O)cc1` (configuration not stated) the T/C (dose: 100.0 mg/kg/injection, schedule: Q04DX003 (ip), vehicle: Klucel (hydroxypropylcellulose) (HPC)) was 105 % of control, the T/C (dose: 200.0 mg/kg/injection, schedule: Q04DX003 (ip), vehicle: Klucel (hydroxypropylcellulose) (HPC)) was 91 % of control and the T/C (dose: 400.0 mg/kg/injection, schedule: Q04DX003 (ip), vehicle: Klucel (hydroxypropylcellulose) (HPC)) was 96 % of control.
With `CCCCN(C)c1ncnc2[nH]ncc12` the T/C (dose: 100.0 mg/kg/injection, schedule: Q04DX003 (ip), vehicle: saline) was 100 % of control.
With `CC(=O)OC1CCC2(C)OC(=O)CC2C1` (configuration not stated) the T/C (dose: 50.0 mg/kg/injection, schedule: Q01DX005 (ip), vehicle: saline with Tween-80) was 98 % of control, the T/C (dose: 100.0 mg/kg/injection, schedule: Q01DX005 (ip), vehicle: saline with Tween-80) was 100 % of control and the T/C (dose: 200.0 mg/kg/injection, schedule: Q01DX005 (ip), vehicle: saline with Tween-80) was 100 % of control.
`CCOC(=O)c1ccc(NC(=NC(C)(C)C)C(C)C)cc1` was tested, and the T/C [8] was 96 % of control, the T/C [9] was 101 % of control and the T/C (dose: 200.0 mg/kg/injection, schedule: Q01DX009 (ip), vehicle: saline with Tween-80) was 91 % of control.
With `CNc1c([N+](=O)[O-])cc2[nH]cnc2c1[N+](=O)[O-]` the T/C (dose: 25.0 mg/kg/injection, schedule: Q04DX003 (ip), vehicle: saline with Tween-80) was 97 % of control and the T/C (dose: 50.0 mg/kg/injection, schedule: Q04DX003 (ip), vehicle: saline with Tween-80) was 95 % of control.
In the case of `CNC(=O)OCc1c(COC(=O)NC)c(-c2ccc(Cl)c(Cl)c2)n2c1Cc1ccccc1C2`, the T/C (dose: 25.0 mg/kg/injection, schedule: Q01DX009 (ip), vehicle: distilled water + Tween-80) is reported as 153 % of control and 160 % of control, the T/C (dose: 50.0 mg/kg/injection, schedule: Q01DX009 (ip), vehicle: distilled water + Tween-80) is reported as 155 % of control and 195 % of control and the T/C (dose: 100.0 mg/kg/injection, schedule: Q01DX009 (ip), vehicle: distilled water + Tween-80) is reported as 171 % of control and 189 % of control. For the same compound, the T/C (dose: 200.0 mg/kg/injection, schedule: Q01DX009 (ip), vehicle: distilled water + Tween-80) was 117 % of control and 97 % of control.
`NC(Cc1ccccc1)C(=O)Nc1cccnc1` (configuration not stated) was tested, and the T/C (dose: 15.0 mg/kg/injection, schedule: Q01DX005 (ip), vehicle: saline) was 98 % of control, the T/C (dose: 30.0 mg/kg/injection, schedule: Q01DX005 (ip), vehicle: saline) was 102 % of control and the T/C (dose: 60.0 mg/kg/injection, schedule: Q01DX005 (ip), vehicle: saline) was 102 % of control and 105 % of control.
`CN(C)c1ccc2c(SCC(=O)OCC(=O)C3(O)CCC4C5CCC6=CC(=O)C=CC6(C)C5C(O)CC43C)c3ccc(N(C)C)cc3nc2c1` (configuration not stated) was tested, and the T/C (dose: 12.5 mg/kg/injection, schedule: Q01DX005 (ip), vehicle: Klucel (hydroxypropylcellulose) (HPC)) was 98 % of control and 97 % of control, the T/C (dose: 25.0 mg/kg/injection, schedule: Q01DX005 (ip), vehicle: Klucel (hydroxypropylcellulose) (HPC)) was 111 % of control and 93 % of control and the T/C [1] was 123 % of control and 96 % of control. The T/C [2] was 118 % of control and 122 % of control.
For `C=CCn1c(=O)n(CC)c(=O)c2[nH]c(Cl)nc21`, the T/C (dose: 15.0 mg/kg/injection, schedule: Q01DX009 (ip), vehicle: saline) was 106 % of control, the T/C (dose: 30.0 mg/kg/injection, schedule: Q01DX009 (ip), vehicle: saline) was 110 % of control and the T/C (dose: 60.0 mg/kg/injection, schedule: Q01DX009 (ip), vehicle: saline) was 104 % of control.
With `O=C1CCCCCCCNC(=O)CCCCCCC(=O)NCCCCCCCC(=O)NCCCCCCCCN1` the T/C (dose: 50.0 mg/kg/injection, schedule: Q01DX001 (ip), vehicle: Klucel (hydroxypropylcellulose) (HPC)) was 91 % of control, the T/C (dose: 100.0 mg/kg/injection, schedule: Q01DX001 (ip), vehicle: Klucel (hydroxypropylcellulose) (HPC)) was 90 % of control and the T/C (dose: 200.0 mg/kg/injection, schedule: Q01DX001 (ip), vehicle: Klucel (hydroxypropylcellulose) (HPC)) was 86 % of control and 89 % of control. For the same compound, the T/C (dose: 400.0 mg/kg/injection, schedule: Q01DX001 (ip), vehicle: Klucel (hydroxypropylcellulose) (HPC)) was 89 % of control.
With `COc1ccc(/C=C/C2=C(C(=O)O)CCCO2)cc1` the T/C [5] was 103 % of control, the T/C [6] was 100 % of control and the T/C [7] was 90 % of control.
